# Assay results from EP1692296B1 (priority 2003, dated 2005).
# “Also recorded” adds a separate entry of the source. Read-outs that look alike come from different tables or passages of the source.
# Test system: protease
# Type: biochemical, Aspergillus sp. MTCC 5102
SMILES,% inhibition [%],Residual specific activity (%),inhibition of the protease activity (in words),% inhibition (200 µM) [%],Residual specific activity (%) (200 µM)
"O=C(O)CN(CCN(CC(=O)O)CC(=O)O)CC(=O)O [EDTA, ethylenediamine tetraacetic acid]",6,94,not inhibited; also recorded: no inhibition of activity,–,–
"[Cl][Hg][Cl] [HgCl2, mercuric chloride]",–,–,not inhibited,14,86
"O=S(=O)(F)Cc1ccccc1 [PMSF, phenylmethylsulfonyl fluoride]",100,0,totally inhibited; also recorded: inhibition of the activity,–,–
